According to article PMC8460821, “Bio-oriented synthesis of new sulphadiazine derivatives for urease inhibition and their pharmacokinetic analysis” (Scientific Reports, 2021):
Like-named read-outs stand apart in the source and are kept apart here.

Tests used:
[1] = molecular target: Jack bean urease (Canavalia ensiformis, UniProt P07374); assay: biochemical
Description: All the synthesized derivatives were subjected to anti-urease activity. In preliminary screening, all compounds were evaluated at 1 mM concentrations, and percentage inhibition was used as an indicator of activity. IC50 values were calculated for the scaffolds having percentage inhibition higher than 50%.
Indophenol method was used to perform the urease inhibition. 10 µL of enzyme, 40 µL buffer, 10 µL of assay moiety, 40-µL each of phenol-reagents, and alkali reagent were present in the assay mixture. Firstly, incubation of assay compounds and enzyme was done in assay buffer at 37 °C for 30 min. Then, alkaline reagents and 40 µL of phenol were mixed to quench the mixture. 96 well plates were used in enzyme assay and for reading of absorbance at 625 nm a microplate reader was helpful. The experiment was done in triplicate and PRISM 4.0 was used to get IC50, positive control was thiourea.

Sequence of Jack bean urease (P07374 whole entry, looked up): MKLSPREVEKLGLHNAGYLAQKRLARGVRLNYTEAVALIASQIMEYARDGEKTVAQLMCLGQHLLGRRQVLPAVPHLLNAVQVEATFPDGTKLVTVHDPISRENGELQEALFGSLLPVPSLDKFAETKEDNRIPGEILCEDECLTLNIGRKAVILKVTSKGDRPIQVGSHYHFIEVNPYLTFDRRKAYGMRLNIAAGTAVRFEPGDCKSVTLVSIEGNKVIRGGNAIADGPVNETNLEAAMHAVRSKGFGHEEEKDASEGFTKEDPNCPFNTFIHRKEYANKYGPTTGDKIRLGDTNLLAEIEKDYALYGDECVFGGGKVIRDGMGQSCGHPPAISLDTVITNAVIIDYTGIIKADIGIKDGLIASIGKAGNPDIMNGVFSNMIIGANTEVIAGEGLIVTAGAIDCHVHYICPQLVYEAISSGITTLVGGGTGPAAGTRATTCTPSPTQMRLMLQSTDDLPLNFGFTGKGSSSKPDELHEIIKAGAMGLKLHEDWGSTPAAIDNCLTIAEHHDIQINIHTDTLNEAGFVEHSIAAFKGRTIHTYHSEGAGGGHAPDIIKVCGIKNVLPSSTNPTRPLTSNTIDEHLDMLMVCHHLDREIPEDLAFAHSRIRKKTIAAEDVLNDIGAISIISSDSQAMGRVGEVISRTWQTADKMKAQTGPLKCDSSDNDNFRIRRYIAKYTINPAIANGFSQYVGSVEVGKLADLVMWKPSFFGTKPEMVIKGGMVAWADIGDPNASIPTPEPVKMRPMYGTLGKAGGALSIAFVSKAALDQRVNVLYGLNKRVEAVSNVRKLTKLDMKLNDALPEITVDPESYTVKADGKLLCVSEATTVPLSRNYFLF

O=[N+]([O-])c1ccc(C=Nc2ccc(S(=O)(=O)Nc3ncccn3)cc2)cc1 [3e, 4-(4-Nitrobenzylideneamino)-N-(pyrimidin-2-yl)benzenesulfonamide]
melting point: 274 to 276 °C
IC50 [1]: 4.15 ± 0.77 µM

O=S(=O)(Nc1ncccn1)c1ccc(N=Cc2ccc(Cl)cc2Cl)cc1 [3q, 4-(2,4-Dichlorobenzylideneamino)-N-(pyrimidin-2-yl)benzenesulfonamide]
melting point: 291 to 293 °C
IC50 [1]: 4.05 ± 1.1 µM

O=S(=O)(Nc1ncccn1)c1ccc(N=Cc2ccc(F)cc2Br)cc1 [3l, 4-(2-Bromo-4-fluorobenzylideneamino)-N-(pyrimidin-2-yl)benzenesulfonamide]
melting point: 285 to 287 °C
IC50 [1]: 2.21 ± 0.45 µM
Potency relative to standard thiourea ([1]; ratio of urease IC50 values): 10 times

O=S(=O)(Nc1ncccn1)c1ccc(N=Cc2ccc(F)cc2F)cc1 [3r, 4-(2,4-Difluorobenzylideneamino)-N-(pyrimidin-2-yl)benzenesulfonamide]
melting point: 279 to 281 °C
IC50 [1]: 13.1 ± 2.55 µM

O=S(=O)(Nc1ncccn1)c1ccc(N=Cc2ccc(Cl)cc2F)cc1 [3p, 4-(4-Chloro-2-fluorobenzylideneamino)-N-(pyrimidin-2-yl)benzenesulfonamide]
melting point: 275 to 277 °C
IC50 [1]: 17.07 ± 0.02 µM

NC(N)=S [thiourea, reference compound]
IC50 ([1]; incubation 37 °C 30 min, absorbance 625 nm, triplicate, positive control thiourea, read-out: IC50 urease inhibition): 20 ± 2.06 µM

O=S(=O)(Nc1ncccn1)c1ccc(N=Cc2ccccc2O)cc1 [3b, 4-(2-Hydroxybenzylideneamino)-N-(pyrimidin-2-yl)benzenesulfonamide]
IC50 [1]: 3.29 ± 2 µM

CN(C)c1ccc(C=Nc2ccc(S(=O)(=O)Nc3ncccn3)cc2)cc1 [3f, 4-(4-(Dimethylamino)benzylideneamino)-N-(pyrimidin-2-yl)benzenesulfonamide]
melting point: 275 to 277 °C
IC50 [1]: 13.14 ± 0.02 µM

O=S(=O)(Nc1ncccn1)c1ccc(N=Cc2ccc(F)cc2O)cc1 [3j, 4-(4-Fluoro-2-hydroxybenzylideneamino)-N-(pyrimidin-2-yl)benzenesulfonamide]
melting point: 279 to 281 °C
IC50 [1]: 19 ± 1.23 µM

O=S(=O)(Nc1ncccn1)c1ccc(N=Cc2ccc(F)cc2)cc1 [3g, 4-(4-Fluorobenzylideneamino)-N-(pyrimidin-2-yl)benzenesulfonamide]
melting point: 283 to 285 °C
IC50 [1]: 10.1 ± 0.45 µM

COc1ccc(C=Nc2ccc(S(=O)(=O)Nc3ncccn3)cc2)c(O)c1 [3d, 4-(2-Hydroxy-4-methoxybenzylideneamino)-N-(pyrimidin-2-yl)benzenesulfonamide]
melting point: 266 to 267 °C

O=S(=O)(Nc1ncccn1)c1ccc(N=Cc2ccc(Cl)cc2Br)cc1 [3o, 4-(2-Bromo-4-chlorobenzylideneamino)-N-(pyrimidin-2-yl)benzenesulfonamide]
melting point: 277 to 279 °C
IC50 [1]: 5.04 ± 0.4 µM

O=S(=O)(Nc1ncccn1)c1ccc(N=Cc2ccc(Br)cc2Br)cc1 [3s, 4-(2,4-Dibromobenzylideneamino)-N-(pyrimidin-2-yl)benzenesulfonamide]
melting point: 273 to 275 °C
IC50 [1]: 6.09 ± 0.45 µM

O=S(=O)(Nc1ncccn1)c1ccc(N=Cc2ccc(Br)cc2F)cc1 [3n, 4-(4-Bromo-2-fluorobenzylideneamino)-N-(pyrimidin-2-yl)benzenesulfonamide]
melting point: 291 to 293 °C
IC50 [1]: 18.2 ± 1.78 µM

Cc1ccc(C=Nc2ccc(S(=O)(=O)Nc3ncccn3)cc2)c(O)c1 [3u, 4-(2-Hydroxy-4-methylbenzylideneamino)-N-(pyrimidin-2-yl)benzenesulfonamide]
melting point: 279 to 281 °C

O=S(=O)(Nc1ncccn1)c1ccc(N=Cc2ccc(Cl)cc2O)cc1 [3i, 4-(4-Chloro-2-hydroxybenzylideneamino)-N-(pyrimidin-2-yl)benzenesulfonamide]
melting point: 285 to 287 °C
IC50 [1]: 25.56 ± 0.22 µM

O=S(=O)(Nc1ncccn1)c1ccc(N=Cc2ccc(O)cc2)cc1 [3t, 4-(4-Hydroxybenzylideneamino)-N-(pyrimidin-2-yl)benzenesulfonamide]
melting point: 271 to 273 °C
IC50 [1]: 8.9 ± 2.45 µM

O=S(=O)(Nc1ncccn1)c1ccc(N=Cc2ccccc2)cc1 [3a, 4-(Benzylideneamino)-N-(pyrimidin-2-yl)benzenesulfonamide]
melting point: 269 to 271 °C
IC50 [1]: 2.32 ± 0.54 µM

O=S(=O)(Nc1ncccn1)c1ccc(N=Cc2cc(Br)ccc2O)cc1 [3c, 4-(5-Bromo-2-hydroxybenzylideneamino)-N-(pyrimidin-2-yl)benzenesulfonamide]
IC50 urease inhibition ([1]; incubation 37 °C 30 min, absorbance 625 nm, triplicate, positive control thiourea): inactivation of the compound

O=S(=O)(Nc1ncccn1)c1ccc(N=Cc2ccc(F)cc2Cl)cc1 [3m, 4-(2-Chloro-4-fluorobenzylideneamino)-N-(pyrimidin-2-yl)benzenesulfonamide]
melting point: 277 to 279 °C
IC50 [1]: 15.7 ± 2.45 µM

O=S(=O)(Nc1ncccn1)c1ccc(N=Cc2ccc(O)cc2O)cc1 [3k, 4-(2,4-Dihydroxybenzylideneamino)-N-(pyrimidin-2-yl)benzenesulfonamide]
melting point: 280 to 282 °C
IC50 [1]: 12.1 ± 2.43 µM

COc1ccc(C=Nc2ccc(S(=O)(=O)Nc3ncccn3)cc2)cc1 [3h, 4-(4-Methoxybenzylideneamino)-N-(pyrimidin-2-yl)benzenesulfonamide]
melting point: 287 to 289 °C
IC50 [1]: 45.6 ± 0.56 µM
